Measured values published in US9238656B2, “Imidazo[4,5-b]pyridine derivatives as ALK and JAK modulators for the treatment of proliferative disorders” (priority 2012, dated 2016).
Counter-ions that a name gives are not always drawn.

Legend:
[1] = target: baculovirus-expressed JAK2 kinase (Homo sapiens, UniProt O60674); assay: biochemical; conditions: 0.2 μM ATP; read-out: JAK2 Potency
Method in brief: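 IC50 derived by variable-slope sigmoidal fit of percent inhibition against log compound concentration. Baculovirus-expressed JAK2 (15 ng/mL) phosphorylated a plate-bound biotinylated 15-mer peptide for 20 min at room temperature; detection by time-resolved fluorescence.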

[2] = target: baculovirus-expressed ALK (Homo sapiens, UniProt Q9UM73); assay: ALK kinase inhibition, TRF/ELISA; format: biochemical; conditions: read-out: ALK Potency
Sequence of baculovirus-expressed ALK (Q9UM73 19-1620): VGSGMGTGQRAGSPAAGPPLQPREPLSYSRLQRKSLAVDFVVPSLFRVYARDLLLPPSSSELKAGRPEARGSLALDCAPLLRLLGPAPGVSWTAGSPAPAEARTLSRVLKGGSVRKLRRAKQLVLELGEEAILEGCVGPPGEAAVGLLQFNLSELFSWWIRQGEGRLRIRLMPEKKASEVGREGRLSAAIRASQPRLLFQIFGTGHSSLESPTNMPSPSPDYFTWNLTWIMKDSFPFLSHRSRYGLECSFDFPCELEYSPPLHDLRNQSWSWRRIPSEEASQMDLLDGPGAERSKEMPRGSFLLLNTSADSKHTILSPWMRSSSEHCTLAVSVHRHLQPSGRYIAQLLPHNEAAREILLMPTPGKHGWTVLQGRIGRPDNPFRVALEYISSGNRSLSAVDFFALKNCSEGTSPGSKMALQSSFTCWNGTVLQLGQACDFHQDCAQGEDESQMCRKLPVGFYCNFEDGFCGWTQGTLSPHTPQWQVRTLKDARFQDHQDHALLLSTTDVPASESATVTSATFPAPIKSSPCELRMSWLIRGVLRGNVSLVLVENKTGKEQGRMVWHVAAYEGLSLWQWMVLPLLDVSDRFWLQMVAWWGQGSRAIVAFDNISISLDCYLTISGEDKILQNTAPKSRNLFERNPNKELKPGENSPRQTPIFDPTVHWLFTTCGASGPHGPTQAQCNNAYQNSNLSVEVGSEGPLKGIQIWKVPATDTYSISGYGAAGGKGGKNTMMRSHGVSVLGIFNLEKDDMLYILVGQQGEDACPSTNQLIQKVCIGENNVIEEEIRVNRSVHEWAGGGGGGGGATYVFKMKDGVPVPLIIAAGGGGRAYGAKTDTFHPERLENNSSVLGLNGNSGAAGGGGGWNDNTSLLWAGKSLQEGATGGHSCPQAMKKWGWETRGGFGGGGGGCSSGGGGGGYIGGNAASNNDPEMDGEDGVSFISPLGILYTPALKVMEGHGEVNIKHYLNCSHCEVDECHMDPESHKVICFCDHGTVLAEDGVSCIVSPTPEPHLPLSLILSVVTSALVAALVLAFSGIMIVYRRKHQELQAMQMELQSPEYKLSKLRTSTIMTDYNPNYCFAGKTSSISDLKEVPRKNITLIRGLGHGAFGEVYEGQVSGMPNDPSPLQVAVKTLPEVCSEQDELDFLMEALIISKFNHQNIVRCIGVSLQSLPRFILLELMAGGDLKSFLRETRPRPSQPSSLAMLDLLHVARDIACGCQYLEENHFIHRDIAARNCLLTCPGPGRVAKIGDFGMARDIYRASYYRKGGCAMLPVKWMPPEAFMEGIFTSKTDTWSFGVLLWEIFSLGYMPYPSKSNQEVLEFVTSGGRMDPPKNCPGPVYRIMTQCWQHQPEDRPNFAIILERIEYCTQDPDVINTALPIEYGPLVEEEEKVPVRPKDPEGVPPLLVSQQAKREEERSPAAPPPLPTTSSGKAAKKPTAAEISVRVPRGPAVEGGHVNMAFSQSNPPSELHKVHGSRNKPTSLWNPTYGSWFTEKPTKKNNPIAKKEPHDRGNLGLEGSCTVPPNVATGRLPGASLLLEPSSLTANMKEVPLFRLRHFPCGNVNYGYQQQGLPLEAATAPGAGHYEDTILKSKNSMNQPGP
Method in brief: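 Eu-PT66 anti-phosphotyrosine TRF read-out measured phosphorylation of plate-bound GST-PLC-γ (coated at 10 μg/mL). The phosphorylation was driven by 30 ng/mL ALK for 15 minutes at 37° C.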

Sequence of baculovirus-expressed JAK2 kinase (O60674 whole entry): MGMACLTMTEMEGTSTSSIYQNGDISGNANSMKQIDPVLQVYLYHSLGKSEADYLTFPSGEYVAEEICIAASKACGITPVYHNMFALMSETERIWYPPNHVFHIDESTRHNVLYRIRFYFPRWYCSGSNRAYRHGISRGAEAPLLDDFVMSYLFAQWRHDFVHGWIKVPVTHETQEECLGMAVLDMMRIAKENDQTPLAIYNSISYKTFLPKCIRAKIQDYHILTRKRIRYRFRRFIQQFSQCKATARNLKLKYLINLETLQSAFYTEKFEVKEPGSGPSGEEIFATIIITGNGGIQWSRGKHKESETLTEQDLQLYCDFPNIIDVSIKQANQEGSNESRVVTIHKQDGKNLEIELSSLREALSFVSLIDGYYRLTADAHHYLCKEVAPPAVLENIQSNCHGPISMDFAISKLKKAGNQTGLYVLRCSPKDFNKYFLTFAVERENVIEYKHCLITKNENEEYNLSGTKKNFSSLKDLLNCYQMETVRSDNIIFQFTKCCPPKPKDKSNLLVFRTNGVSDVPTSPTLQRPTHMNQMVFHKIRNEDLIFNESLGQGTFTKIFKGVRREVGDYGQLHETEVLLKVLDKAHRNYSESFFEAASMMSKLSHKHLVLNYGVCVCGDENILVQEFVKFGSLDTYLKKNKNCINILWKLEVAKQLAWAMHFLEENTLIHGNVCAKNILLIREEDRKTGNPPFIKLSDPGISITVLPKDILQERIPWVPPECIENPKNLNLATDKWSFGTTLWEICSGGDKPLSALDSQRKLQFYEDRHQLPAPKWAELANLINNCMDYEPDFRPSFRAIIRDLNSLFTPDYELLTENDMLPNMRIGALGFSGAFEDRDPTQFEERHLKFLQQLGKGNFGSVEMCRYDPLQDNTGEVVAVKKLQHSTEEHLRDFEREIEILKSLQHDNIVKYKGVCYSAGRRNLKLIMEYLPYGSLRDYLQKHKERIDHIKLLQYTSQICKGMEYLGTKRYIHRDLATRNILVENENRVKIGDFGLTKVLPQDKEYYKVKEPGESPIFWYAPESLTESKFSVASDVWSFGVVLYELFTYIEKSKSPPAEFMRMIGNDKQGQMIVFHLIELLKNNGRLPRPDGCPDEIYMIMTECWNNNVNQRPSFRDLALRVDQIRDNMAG

| IC50 [1] | IC50 [2] | SMILES |
| --- | --- | --- |
| < 100 nM | < 100 nM | CNC(=O)[C@@H]1[C@H](Nc2c(Cl)cnc3[nH]c(-c4ccc(N5CCOCC5)cc4)nc23)[C@H]2C=C[C@@H]1C2 [Compound CLXXVIII, (1S,2S,3R,4R)-3-(6-chloro-2-(4-morpholinophenyl)-3H-imidazo[4,5-b]pyridin-7-ylamino)-N-methylbicyclo[2.2.1]hept-5-ene-2-carboxamide] |
| < 100 nM | < 100 nM | CN1CCN(CCOc2ccc(-c3nc4c(N[C@H]5[C@@H](C(=O)N(C)C)[C@@H]6C=C[C@H]5C6)c(Cl)cnc4[nH]3)cc2)CC1 [Compound CLXXV, (1S,2S,3R,4R)-3-(6-Chloro-2-{4-[2-(4-methyl-piperazin-1-yl)-ethoxy]-phenyl}-3H-imidazo[4,5-b]pyridin-7-ylamino)-bicyclo[2.2.1]hept-5-ene-2-carboxylic acid dimethylamide] |
| < 100 nM | < 100 nM | NC(=O)[C@@H]1[C@H](Nc2c(Br)cnc3[nH]c(-c4sc(N5CC[C@@H](O)C5)nc4Cl)nc23)[C@H]2C=C[C@@H]1C2 [Compound CLXXI, (1S,2S,3R,4R)-3-{6-Bromo-2-[4-chloro-2-((R)-3-hydroxy-pyrrolidin-1-yl)-thiazol-5-yl]-3H-imidazo[4,5-b]pyridin-7-ylamino}-bicyclo[2.2.1]hept-5-ene-2-carboxylic acid amide] |
| < 100 nM | < 100 nM | NC(=O)[C@@H]1[C@H](Nc2c(Cl)cnc3[nH]c(-c4sc(N5CCCC5)nc4Cl)nc23)[C@H]2C=C[C@@H]1C2 [Compound CLXVI, (1S,2S,3R,4R)-3-[6-Chloro-2-(4-chloro-2-pyrrolidin-1-yl-thiazol-5-yl)-3H-imidazo[4,5-b]pyridin-7-ylamino]-bicyclo[2.2.1]hept-5-ene-2-carboxylic acid amide] |
| < 100 nM | < 100 nM | NC(=O)[C@@H]1[C@H](Nc2c(Cl)cnc3[nH]c(-c4ccc(N5CCOCC5)cc4Cl)nc23)[C@H]2C=C[C@@H]1C2 [Compound CXX, (1S,2S,3R,4R)-3-[6-Chloro-2-(2-chloro-4-morpholin-4-yl-phenyl)-3H-imidazo[4,5-b]pyridin-7-ylamino]-bicyclo[2.2.1]hept-5-ene-2-carboxylic acid amide] |
| < 100 nM | < 100 nM | CN1CCN(c2ncc(-c3nc4c(N[C@H]5[C@@H](C(N)=O)[C@@H]6C=C[C@H]5C6)c(Cl)cnc4[nH]3)s2)CC1 [Compound CCXI, (1S,2S,3R,4R)-3-(6-chloro-2-(2-(4-methylpiperazin-1-yl)thiazol-5-yl)-3H-imidazo[4,5-b]pyridin-7-ylamino)bicyclo[2.2.1]hept-5-ene-2-carboxamide] |
| < 100 nM | < 100 nM | CN(C)C(=O)[C@@H]1[C@H](Nc2c(Cl)cnc3[nH]c(-c4sc(N5CC[C@@H](O)C5)nc4Cl)nc23)[C@H]2C=C[C@@H]1C2 [Compound CLXVIII, (1S,2S,3R,4R)-3-{6-Chloro-2-[4-chloro-2-((R)-3-hydroxy-pyrrolidin-1-yl)-thiazol-5-yl]-3H-imidazo[4,5-b]pyridin-7-ylamino}-bicyclo[2.2.1]hept-5-ene-2-carboxylic acid dimethylamide] |

The next lines start with the compound.

| SMILES | IC50 [1] | IC50 [2] |
| --- | --- | --- |
| CC(=O)N1CCN(Cc2ccc(-c3nc4c(N[C@H]5[C@@H](C(N)=O)[C@@H]6C=C[C@H]5C6)c(Cl)cnc4[nH]3)cc2)CC1 [Compound CLVII, (1S,2S,3R,4R)-3-{2-[4-(4-Acetyl-piperazin-1-ylmethyl)-phenyl]-6-chloro-3H-imidazo[4,5-b]pyridin-7-ylamino}-bicyclo[2.2.1]hept-5-ene-2-carboxylic acid amide] | < 100 nM | < 100 nM |
| COc1cc(N2CCC(N3CCN(C)CC3)CC2)ccc1-c1nc2c(N[C@@H]3CCCC[C@H]3NS(C)(=O)=O)c(Cl)cnc2[nH]1 [CCLIII] | 1000 to 10000 nM | < 100 nM |
| NC(=O)[C@@H]1[C@H](Nc2c(Cl)cnc3[nH]c(-c4cccc(C(=O)O)c4)nc23)[C@H]2C=C[C@@H]1C2 [Compound CCXVII, 3-(7-((1R,2R,3S,4S)-3-carbamoylbicyclo[2.2.1]hept-5-en-2-ylamino)-6-chloro-3H-imidazo[4,5-b]pyridin-2-yl)benzoic acid] | < 100 nM | 1000 to 10000 nM |
| COc1cc(N2CCOCC2)ccc1-c1nc2c(N3C[C@@H]4C[C@H]3CN4C[C@H](C)O)c(Cl)cnc2[nH]1 [Compound XXXIX, (S)-1-[(1S,4S)-5-[6-Chloro-2-(methoxy-4-morpholin-4-yl-phenyl)-3H-imidazo[4,5-b]pyridine-7-yl]-2,5-diaza-bicyclo[2.2.1]hept-2-yl]-propan-2-ol] | > 10000 nM | > 10000 nM |
| COc1cc(CN2CCOCC2)ccc1Nc1nc2c(N[C@H]3[C@@H](C(N)=O)[C@@H]4C=C[C@H]3C4)c(Cl)cnc2[nH]1 [Compound LXIX, (1S,2S,3R,4R)-3-[6-Chloro-2-(2-methoxy-4-morpholin-4-ylmethyl-phenylamino)-3H-imidazo[4,5-b]pyridine-7-ylamino]-bicyclo[2.2.1]hept-5-ene-2-carboxylic acid amide] | < 100 nM | < 100 nM |
| COc1cc(N2CCOCC2)ccc1-c1nc2c(N[C@H]3[C@@H](C(N)=O)[C@@H]4CC[C@H]3O4)c(Cl)cnc2[nH]1 [Compound CCVI, (1S,2R,3S,4R)-3-(6-chloro-2-(2-methoxy-4-morpholinophenyl)-3H-imidazo[4,5-b]pyridin-7-ylamino)-7-oxabicyclo[2.2.1]heptane-2-carboxamide] | 1000 to 10000 nM | 100 to 1000 nM |
| CN1CCC(Oc2ccc(-c3nc4c(N[C@H]5[C@@H](C(N)=O)[C@@H]6C=C[C@H]5C6)c(Cl)cnc4[nH]3)cc2)CC1 [Compound CCXLV, (1S,2S,3R,4R)-3-(6-chloro-2-(4-(1-methylpiperidin-4-yloxy)phenyl)-3H-imidazo[4,5-b]pyridin-7-ylamino)bicyclo[2.2.1]hept-5-ene-2-carboxamide] | < 100 nM | < 100 nM |
| NC(=O)[C@@H]1[C@H](Nc2c(Br)cnc3[nH]c(-c4ccc(N5CCOCC5)cc4Cl)nc23)[C@H]2C=C[C@@H]1C2 [Compound CXXXIV, (1S,2S,3R,4R)-3-[6-Bromo-2-(2-chloro-4-morpholin-4-yl-phenyl)-3H-imidazo[4,5-b]pyridin-7-ylamino]-bicyclo[2.2.1]hept-5-ene-2-carboxylic acid amide] | < 100 nM | < 100 nM |
| CN1CCN(Cc2ccc(-c3nc4c(N[C@H]5[C@@H](C(N)=O)[C@@H]6C=C[C@H]5C6)c(Cl)cnc4[nH]3)cc2)CC1 [Compound XX, (1S,2S,3R,4R)-3-{6-Chloro-2-[4-(4-methyl-piperazin-1-ylmethyl)-phenyl]-3H-imidazo[4,5-b]pyridin-7-ylamino}-bicyclo[2.2.1]hept-5-ene-2-carboxylic acid amide; compound with trifluoro-acetic acid bis trifluoroacetic acid salt] | < 100 nM | < 100 nM |
| CC12CCC(Nc3c(Cl)cnc4[nH]c(-c5ccc(N6CCOCC6)cc5)nc34)(CC1O)C2(C)C (stereo not drawn) [Compound CCI, 4-(6-chloro-2-(4-morpholinophenyl)-3H-imidazo[4,5-b]pyridin-7-ylamino)-1,7,7-trimethylbicyclo[2.2.1]heptan-2-ol] | < 100 nM | > 10000 nM |
| Cn1cc(-c2nc3c(NC45CCC(C)(C(=O)C4)C5(C)C)c(Cl)cnc3[nH]2)cn1 (stereo not drawn) [Compound CXCIX, 4-(6-chloro-2-(1-methyl-1H-pyrazol-4-yl)-3H-imidazo[4,5-b]pyridin-7-ylamino)-1,7,7-trimethylbicyclo[2.2.1]heptan-2-one] | < 100 nM | 1000 to 10000 nM |
